Measurements published in patent publication US10918733B2, “Lipopeptide- and lipoprotein-conjugates and its use” (HELMHOLTZ-ZENTRUM FUER INFEKTIONSFORSCHUNG GMBH, priority 2009, dated 2021).

B1: LPS free Ova: EndoGrade Ovalbumin, Hyglos GmbH (protein, UniProt P01012 2-386, looked up)
Ovalbumin: GSIGAASMEFCFDVFKELKVHHANENIFYCPIAIMSALAMVYLGAKDSTRTQINKVVRFDKLPGFGDSIEAQCGTSVNVHSSLRDILNQITKPNDVYSFSLASRLYAEERYPILPEYLQCVKELYRGGLEPINFQTAADQARELINSWVESQTNGIIRNVLQPSSVDSQTAMVLVNAIVFKGLWEKAFKDEDTQAMPFRVTEQESKPVQMMYQIGLFRVASMASEKMKILELPFASGTMSMLVLLPDEVSGLEQLESIINFEKLTEWTSSNVMEERKIKVYLPRMKMEEKYNLTSVLMAMGITDVFSSSANLSGISSAESLKISQAVHAAHAEINEAGREVVGSAEAGVDAASVSEEFRADHPFLFCIKHIATNAVLFFGRCVSP
modifications: endotoxin-free
notes: EndoGrade Ovalbumin, Hyglos GmbH

Key:
[1] = tested on: Ova-specific CD8+ T cells; test: Proliferation of CFSE-stained T cells co-cultured with treated DC: CD8+ T cells; assay type: cell-based, OT1-tg mice; settings: DC incubated with 10 μg/mL for 24 h, co-culture 4 days
Procedure: (§1) T cell-mediated immune responses were investigated 96 h by measuring the proliferation of cells recovered from spleens after restimulation with BPPcysOva^mPEG. Non-Ag restimulated spleen cells were chosen as negative controls (FIG. 3). […] Taking into consideration that the BPPcysOva^mPEG has a promising effect on DC activation and maturation, next the capacity of these APC to stimulate the proliferation of antigen-specific CD8+ and CD4+ T cells was evaluated. Concentrations below 10^−8 M of BPPcysOva^mPEG were still able to induce an antigen specific proliferation of CD4+ T cells shown by the reduction of CFSE+ cells (FIGS. 4A-E).
(§2) FIG. 4: Proliferation of CD8+, CD4+ and regulatory T cells. DC were generated from bone marrow of C57BL/6 mice and incubated with 10 μg/mL of B) Ova C) Ova peptides, D) Ova in the presence of BPPcysMPEG and E) BPPcysOva^mPEG alone (A) Control) for 24 h. The following day, CD4+ T cells from spleens of OT2-tg animals or CD8+ T cells of OT1-tg animals were isolated. After staining with CFSE, CD8+, CD4+ T cells were co-cultured with adjuvant-treated DCs for 4 days. The decrease of CFSE-FITC expression due to cell division of CD8+ or CD4+ T cells were analysed by flow cytometric analysis. One representative experiment out of two is shown.

[2] = tested on: Ova-specific CD4+CD25+Foxp3+ regulatory T cells; test: Proliferation of T cells co-cultured with treated DC: regulatory T cells; assay type: cell-based, OTII mice; settings: DC incubated with 10 μg/mL for 24 h, co-culture 4 days
Procedure: as §1, §2

spleen cells = test: Proliferation of spleen cells of immunized mice after in vitro restimulation with Ova, day 42 (Example 5); assay type: in vivo; settings: i.n., restimulation with Ova
Procedure: Experimental protocol: Spleens were removed and pooled for analysis of cellular immune responses. Cells were grown in RPMI 1640 supplemented with 10% fetal calf serum, 100 U/ml of penicillin, 50 μg/ml of streptomycin, 5×10^−5 M 2-mercaptoethanol and 1 mM L-glutamine (GIBCO BRL, Karlsruhe, Germany) and maintained at 37° C. in a humidified 5% CO2 atmosphere. Lymph node and spleen cell suspensions were adjusted to 5×10^6 cells/ml in complete medium, cells were seeded with 100 μl per well in a flat-bottomed 96-well microtiter plate (Nunc) and plates were incubated for 4 days in the presence of different concentrations of Ova. Each concentration was tested in triplicates. During the final 18 h of culture, 1 μCi of [^3H]thymidine (Amersham International, Freiburg, Germany) was added to each well. Cells were then harvested on paper filters (Filtermat A; Wallac, Freiburg, Germany) by using a cell harvester (Inotech, Wohlen, Switzerland), and the amount of incorporated [^3H]thymidine into the DNA of proliferating cells was determined by a β-scintillation counter (Wallac 1450, Micro-Trilux). The results are expressed as the arithmetic mean of [^3H]thymidine uptake in cpm.
T cell-mediated immune responses were investigated at day 42 by measuring the proliferation of cells recovered from spleens after in vitro restimulation with Ova. […]

Row | Molecule | stimulation of proliferation of Ova-specific CD8+ T cells by treated DC [1] | stimulation of proliferation of Ova-specific CD4+CD25+Foxp3+ regulatory T cells by treated DC [2] | proliferative response of spleen cells, i.n. immunization (spleen cells)
1 | CD4 peptide: Ova CD4 epitope peptide alone (KISQAVHAAHAEINEAG; UniProt P01012 323-339, looked up, fragment) [reference compound] | weak stimulation | very efficiently | –
2 | B1 | – | – | failed to induce detectable cellular proliferation
